Key:
Format in all cases: physicochemical
[1] = Solubility in various media (equilibration on a shaking bed for 24 hours, HPLC); settings: for Solubility, Actual Conc / Solubility in 0.05M Buffers, Actual Conc: 24 h equilibration; for Solubility, Total Conc: ambient, 24 h
Experimental: (§1) Solubility: The solubility of form IA in various media was determined at ambient conditions by equilibrating aliquots of the drug powder with the solvents on a shaking bed for 24 hours. The samples were centrifuged, the saturated solutions of the drug were then separated and analyzed by HPLC. The sample volume was 100 μL and the target concentration was 10 mg/mL. The saturated solutions were diluted appropriately and analyzed by HPLC.
Solubility: Solubility of form IIC in various media was determined at ambient conditions by equilibrating aliquots of the drug powder with the solvents on a shaking bed for 24 hours. Samples were spun and the supernatant was carefully separated and analyzed by HPLC at the 24-hour timepoint using a stability-indicating method. […] Some variability may occur between lots of a particular sample.
as §1, with “Solubility” for “The solubility”, “IIIB” for “IA”, “medium” for “solvents”, “μL,” for “μL”, “mg/ml.” for “mg/mL.”

[2] = Stability analysis (chemical stability by HPLC, physical stability by XRPD); settings: for chemically and physically stable for at least about / chemically and physically stable for at least about (e.g. value): various storage conditions, including 40° C./75% RH (e.g., open container)
From the text: In some embodiments, less than 25% of the form of Compound 1 decomposes, in some embodiments, less than about 20%, less than about 15%, less than about 10%, less than about 5%, less than about 3%, less than about 1%, less than about 0.5% of the form of Compound 1 decomposes under the conditions specified. In some embodiments, no detectable amount of the form of Compound 1 decomposes.
In some embodiments, less than 25% of the form of Compound 1 changes into one or more different physical forms when subjected to specified conditions, In some embodiments, less than about 20%, less than about 15%, less than about 10%, less than about 5%, less than about 3%, less than about 1%, less than about 0.5% of the form of Compound 1 changes into one or more different physical forms of Compound 1 when subjected to specified conditions. In some embodiments, no detectable amount of the form of Compound 1 changes into one or more different physical forms of Compound 1.

[3] = Dynamic Vapor Sorption (DVS), step isothermal study; settings: 25° C.; for weight gain from 5% to 95% relative humidity: step isothermic study (DVS); for release of adsorbed water in the desorption stage: 95% to 5% RH; for moisture picked up at 95% relative humidity (RH): adsorption 5% to 95% RH
Experimental: (§2) Dynamic Vapor Sorption (DVS): A step isothermal study (25° C.) was conducted on a representative sample of form IA using a VTI SGA 100 Symmetric Vapor Sorption Analyzer. An aliquot of approximately 10 mg was weighed in an open platinum dish and exposed to different levels of humidity at 25° C. Relative humidity (RH) steps were from 5% to 95% (adsorption) and from 95% to 5% in increments of 5% RH (desorption). The equilibration criterion was 0.0100 wt % change in 5 min, with a max equilibration time of 180 min. The sample picked up ˜8 wt % moisture at 95% relative humidity (RH).
as §2, with “a” for “a representative”, “form IIA” for “form IA”, “The material” for “The sample”, “up ˜11” for “up ˜8”
as §2, with “a” for “a representative”, “form IIC” for “form IA”, “The material” for “The sample”, “up ˜4” for “up ˜8”
Water Vapor Sorption analysis: Vapor Sorption analysis of a sample of form IIIB was done using a SGA-100 Vapor Sorption Analyzer (VTI, Hialeah, Fla.). A sample with weight of approximately 7-12 mg was measured isothermally at 25° C. Data was collected by Isotherm software and analyzed by Microsoft Excel with a VTI macro (VTI, Hialeah, Fla.). The sample gained about 4.6% in weight from 5 to 95% RH (25° C.).

[4] = aqueous solution, pH of about 1.6

## CCNC(=O)Nc1nc2cc(-c3cncc(F)c3)cc(-c3ncccn3)c2[nH]1.CCS(=O)(=O)O [crystalline 1-ethyl-3-(5-(5-fluoropyridin-3-yl)-7-(pyrimidin] [1-ethyl-3-(5-(5-fluoropyridin-3-yl)-7-(pyrimidin-2-yl)-1H-benzo[d]imidazol-2-yl)urea.monoesylate]
[1]; [4]
  solubility: greater than 150 mg/ml
[2]; 40° C./75% relative humidity
  remains chemically stable for at least about: at least 2 weeks
  remains in substantially the same physical form for at least: at least 6 months
  remains in substantially the same physical form for at least about: at least 2 weeks

## CCNC(=O)Nc1nc2cc(-c3cncc(F)c3)cc(-c3ncccn3)c2[nH]1.CS(=O)(=O)O [crystalline1-ethyl-3-(5-(5-fluoropyridin-3-yl)-7-(pyrimidin-] [1-ethyl-3-(5-(5-fluoropyridin-3-yl)-7-(pyrimidin-2-yl)-1H-benzo[d]imidazol-2-yl)urea.monomesylate]
[1]; at pH of about 4.4
  solubility: greater than 12 mg/ml
[3]
  weight gain from 5% to 95% relative humidity: 4.6%
[2]; 40° C./75% relative humidity
  remains chemically stable for at least: at least 1 months
  remains in substantially the same physical form for at least: at least 1 months

## CCNC(=O)Nc1nc2cc(-c3cncc(F)c3)cc(-c3ncccn3)c2[nH]1.CCS(=O)(=O)O [Form IIA, 1-ethyl-3-(5-(5-fluoropyridin-3-yl)-7-(pyrimidin-2-yl)-1H-benzo[d]imidazol-2-yl)urea•monoesylate]
[1]; [4]
  solubility: > 150 mg/mL
[3]; DVS
  release of adsorbed water in the desorption stage: Not all of the adsorbed water was released
  moisture picked up at 95% relative humidity (RH): ~11 wt %
[3]
  weight gain from 5% to 95% relative humidity: about 10%
[2]; 40° C./75% RH for about 24 hours or for about 2 weeks
  change of solid form on storage: converted to form IIB

## CCNC(=O)Nc1nc2cc(-c3cncc(F)c3)cc(-c3ncccn3)c2[nH]1.CCS(=O)(=O)O [Form IIC, 1-ethyl-3-(5-(5-fluoropyridin-3-yl)-7-(pyrimidin-2-yl)-1H-benzo[d]imidazol-2-yl)urea•monoesylate]
[1]; 0.1N HCl, pH 1.10, target 100 mg/ml
  Solubility, Actual Conc: 105 mg/mL
[1]; 0.5% Methylcellulose (MC)/0.5% Sodium Lauryl Sulfate (SLS), pH 1.58, target 100 mg/ml
  Solubility, Actual Conc: 94.8 mg/mL
[1]; 0.9% Sodium Chloride, target 100 mg/ml
  Solubility, Actual Conc: 33.6 mg/mL
[1]; 1% Deoxycholic sodium salt (DOSS), pH 1.71, target 150 mg/ml
  Solubility, Actual Conc: 125 mg/mL
[1]; 1% Docusate, pH 1.58, target 150 mg/ml
  Solubility, Actual Conc: 159 mg/mL
[1]; 1% Pluronic F68, pH 1.57, target 150 mg/ml
  Solubility, Actual Conc: 155 mg/mL
[1]; 1% Pluronic F108, pH 1.58, target 150 mg/ml
  Solubility, Actual Conc: 159 mg/mL
[1]; 1% SLS, pH 1.56, target 150 mg/ml
  Solubility, Actual Conc: 126 mg/mL
[1]; 1% Tween 80, pH 1.60, target 150 mg/ml
  Solubility, Actual Conc: 130 mg/mL
[1]; 4% Glycerol, pH 1.59, target 150 mg/ml
  Solubility, Actual Conc: 162 mg/mL
[1]; 10% Cremophor, pH 1.64, target 150 mg/ml
  Solubility, Actual Conc: 137 mg/mL
[1]; 10% Polyvinyl pyrrolidone (PVP) K30, pH 1.70, target 150 mg/ml
  Solubility, Actual Conc: 152 mg/mL
[1]; 10% Solutol, pH 1.61, target 150 mg/ml
  Solubility, Actual Conc: 170 mg/mL
[1]; 10% Tween 80, pH 1.64, target 150 mg/ml
  Solubility, Actual Conc: 144 mg/mL
[1]; 10% Vitamin E TPGS, pH 1.58, target 150 mg/ml
  Solubility, Actual Conc: 138 mg/mL
[1]; Potassium chloride hydrochloric acid, pH 1, experimental pH 1.01
  Solubility in 0.05M Buffers, Actual Conc: 113 mg/mL
[1]; Potassium phosphate monobasic-sodium hydroxide, pH 7
  Solubility in 0.05M Buffers, Actual Conc: 48.2 mg/mL
[1]; Potassium phosphate monobasic-sodium hydroxide, pH 9, experimental pH 1.75
  Solubility in 0.05M Buffers, Actual Conc: 67.0 mg/mL
[1]; Tetraglucol:Water (1:1), pH 2.08, target 50 mg/ml
  Solubility, Actual Conc: 29.6 mg/mL
[1]; Water, pH 1.60, target 150 mg/ml
  Solubility, Actual Conc: 152 mg/mL
[1]; [4]
  solubility: > 150 mg/mL
[1]; pH 7 Tris Buffer, target 100 mg/ml
  Solubility, Actual Conc: 30.0 mg/mL
[3]; DVS, 5% to 95% RH
  hydrate formation: did not form a hydrate
[3]; DVS
  release of adsorbed water in the desorption stage: All adsorbed water was released
  moisture picked up at 95% relative humidity (RH): ~4 wt %
[2]
  chemically and physically stable for at least about: at least 2 weeks
  chemically and physically stable for at least about (e.g. value): at least 6 months

## CCNC(=O)Nc1nc2cc(-c3cncc(F)c3)cc(-c3ncccn3)c2[nH]1.CCS(=O)(=O)O [Form IID, 1-ethyl-3-(5-(5-fluoropyridin-3-yl)-7-(pyrimidin-2-yl)-1H-benzo[d]imidazol-2-yl)urea•monoesylate]
[1]; [4]
  solubility: > 150 mg/mL

## CCNC(=O)Nc1nc2cc(-c3cncc(F)c3)cc(-c3ncccn3)c2[nH]1.CCS(=O)(=O)O [Form IIB, 1-ethyl-3-(5-(5-fluoropyridin-3-yl)-7-(pyrimidin-2-yl)-1H-benzo[d]imidazol-2-yl)urea•monoesylate]
[1]; [4]
  solubility: > 150 mg/mL

## CCNC(=O)Nc1nc2cc(-c3cncc(F)c3)cc(-c3ncccn3)c2[nH]1.CS(=O)(=O)O [Form IIIB, 1-ethyl-3-(5-(5-fluoropyridin-3-yl)-7-(pyrimidin-2-yl)-1H-benzo[d]imidazol-2-yl)urea•monomesylate]
[1]; Captisol, 20%
  Solubility, Total Conc: 3.81 mg/mL
[1]; Captisol, 30%, pH 7
  Solubility, Total Conc: 0.634 mg/mL
[1]; Ethanol
  Solubility, Total Conc: 0.439 mg/mL
[1]; HCl, 0.1N
  Solubility, Total Conc: 12.2 mg/mL
[1]; Miglyol810
  Solubility, Total Conc: 0.0219 mg/mL
[1]; Octanol
  Solubility, Total Conc: 0.0584 mg/mL
[1]; PEG400
  Solubility, Total Conc: 0.729 mg/mL
[1]; PluronicF108, 1%
  Solubility, Total Conc: >12.0 mg/mL
[1]; PropyleneGlycol
  Solubility, Total Conc: 5.74 mg/mL
[1]; SGF
  Solubility, Total Conc: >12.0 mg/mL
[1]; SIF
  Solubility, Total Conc: 0.0284 mg/mL
[1]; SodiumLaurylSulfate, 1%
  Solubility, Total Conc: 0.623 mg/mL
[1]; TrisBuffer, pH 7
  Solubility, Total Conc: 0.0276 mg/mL
[1]; Vitamin E TPGS, 10%, 1% HPMC
  Solubility, Total Conc: >12.0 mg/mL
[1]; Vitamin E TPGS, 10%
  Solubility, Total Conc: 11.5 mg/mL
[1]; Water
  Solubility, Total Conc: >12.0 mg/mL
[1]; at pH of about 4.4
  solubility: > 12 mg/mL
[1]; in simulated gastric fluid (SGF)
  solubility: > 12 mg/mL
[3]
  weight gain from 5% to 95% relative humidity: about 4.6%
[2]
  chemically and physically stable for at least about: at least 2 weeks
  chemically and physically stable for at least about (e.g. value): at least 1 months
